# How the values were obtained:
# [1] = tested on: invasion of inflammatory cells into the lungs; assay: Histopathological examination of H&E stained lung tissue slices, mice with asthma (OVA); type: in vivo; details: OVA-sensitized BALB/c mice, result in words
# Experimental: (§1) In Example 2, mice with asthma were used to conduct in vivo experiments, and ovalbumin (OVA) was used as an allergen.
# (§2) The mice were sensitized (or challenged) according to the steps shown in FIG. 9 (see Lee et al., Lentiviral-mediated GATA-3 RNAi decreases allergic airway inflammation and hyperresponsiveness. Molecular Therapy, 2008; 16:60-65, which is incorporated herein in its entirety by reference). First, 50 μg OVA (using 2 mg alumina (Alum, Alumlmuject, Pierce Chemical, Rockford, Ill., USA) as an adjuvant) was injected into six to eight-week-old BALB/c female mice (from National Laboratory Animal Center, Taiwan) by intraperitoneal injection (i.p.). At 0th, 14th, and 28th day, the mice were injected with OVA at the same dosage. Before the administration of OVA at the forty-first and the forty-second days, different dosages of brazilin (high dose: 430 μg/mice; low dose: 43 μg/mice) were administrated to the mice by intraperitoneal injection (i.p.) or intratracheal instillation (i.t.). During the fortieth to the forty-second days, 100 μg OVA was dissolved in 40 μl PBS, and was administrated to the mice by intranasal instillation (i.n.) (once everyday, for three days). At the forty-third day, airway hyperresponsiveness of the mice was observed. […]
# IL-4 mRNA = assay: Real-time PCR of IL-4 mRNA in EL-4 T lymphoma cells; type: cell-based, mouse; details: for Expression level of IL-4 mRNA: PMA + cAMP stimulated EL-4 cells, corrected to HPRT
# Experimental: Then, at a density of 5×10^5 counts/ml, the T lymphoma cells were bred in a six-well culture dish, and at the 0th minute, brazilin of different concentrations (0.3, 1, 3, 10, or 30 micromole (μM)) was added into the cell culture solution at an amount of 1 μl/ml-cell culture solution. Then, the cells were put into the incubator to be cultured therein. 30 minutes later, at an amount of 1 μl/ml-cell culture solution, 5 μg/ml PMA and cAMP at a 250 mmol concentration were added to the cell culture solution to stimulate the expression of IL-4 and IL-5 of the T lymphoma cells. During the process of cell culture, the trypan blue exclusion assay was employed to observe effect of the brazilin on the cell viability, results of which are shown in Table 1 and FIG. 1.
# Expression of mRNA of IL-4, IL-5, GATA-3, c-maf, and T-bet were analyzed in a quantitative way through real-time polymerase chain reaction (PCR) by extracting RNA in the cells obtained in Experiment A (using an RNA purifying kit), converting the RNA into cDNA through reverse transcription, and using an ABI PRISM 7700 sequence detector (Applied Biosystems, Foster City, Calif., America) to analyze the gene expression of mRNA. The PCR was carried out under the following conditions: 50° C., 2 minutes; 95° C., 10 minutes; 60° C., 1 minute; then repeating this cycle forty times. A threshold cycle (or referred to as Ct) was used to represent the expression level of each gene, and an expression level of hypoxanthine-guanine phosphoribosy transferase (HPRT) genes of the endogenous control group was used for correction of the expression level of mRNA.
# IFN-γ = assay: ELISA of IFN-γ in bronochial alveolar lavage fluid, mice with asthma (OVA); type: in vivo, BALB/c mice; details: for IFN-γ concentration (pico-gram/ml): i.p. or i.t., OVA-sensitized BALB/c mice
# Experimental: as §1, §2
# In Experiment D, after 24 hours from the last administration of OVA into the noses of the mice, the mice were sacrificed, and the blood was collected from the orbital cavities of the mice. […] Cells obtained after the centrifugation were re-suspended in a 1 ml HBSS buffer solution, and the total cell number was counted with a hemocytometer.
# The bronochial alveolar lavage fluid collected in Experiment E was centrifuged at 4° C. and with a revolution speed of 400 g for 10 minutes. After the supernatant was collected, the expression of eotaxin, IL-4, IL-5, and IFN-γ was analyzed with an ELISA kit (R&D Systems, Inc., USA). […]
compound,measurement,setting,value
Oc1ccc2c(c1)OC[C@]1(O)Cc3cc(O)c(O)cc3[C@H]21 [brazilin],"invasion of inflammatory cells (H&E lung slices, FIG. 11)",[1],reduced
same,expression of mRNA of IL-4,"IL-4 mRNA; EL-4 cells, result in words",inhibited
same,Expression level of IL-4 mRNA,IL-4 mRNA; brazilin 0.3 μM,2.228 ± 0.4786
same,Expression level of IL-4 mRNA,IL-4 mRNA; brazilin 1 μM,2.028 ± 0.1794
same,Expression level of IL-4 mRNA,IL-4 mRNA; brazilin 3 μM,2.136 ± 0.2671
same,Expression level of IL-4 mRNA,IL-4 mRNA; brazilin 10 μM,1.835 ± 0.2712
same,Expression level of IL-4 mRNA,IL-4 mRNA; brazilin 30 μM,1.478 ± 0.1441
same,effect on IFN-γ cytokine of Th1 cells,"IFN-γ; BALB/c mice, result in words",no effect
same,IFN-γ concentration (pico-gram/ml),IFN-γ; High dose (430 μg/mice),4.288 ± 0.868 pico-gram/ml
same,IFN-γ concentration (pico-gram/ml),IFN-γ; Low dose (43 μg/mice),3.598 ± 1.218 pico-gram/ml
